Data as given in patent US12637476B2, “Substituted carbamate macrocyclic compounds and related methods of treatment” (Alkermes, Inc., priority 2021, dated 2026).

Target: T1, human orexin-2 receptor (OX2R) (Homo sapiens, UniProt O43614)
T1 construct: expressed in transfected cells; host or cells: T-Rex CHO cells, induced with doxycycline
T1 sequence (O43614 1-444): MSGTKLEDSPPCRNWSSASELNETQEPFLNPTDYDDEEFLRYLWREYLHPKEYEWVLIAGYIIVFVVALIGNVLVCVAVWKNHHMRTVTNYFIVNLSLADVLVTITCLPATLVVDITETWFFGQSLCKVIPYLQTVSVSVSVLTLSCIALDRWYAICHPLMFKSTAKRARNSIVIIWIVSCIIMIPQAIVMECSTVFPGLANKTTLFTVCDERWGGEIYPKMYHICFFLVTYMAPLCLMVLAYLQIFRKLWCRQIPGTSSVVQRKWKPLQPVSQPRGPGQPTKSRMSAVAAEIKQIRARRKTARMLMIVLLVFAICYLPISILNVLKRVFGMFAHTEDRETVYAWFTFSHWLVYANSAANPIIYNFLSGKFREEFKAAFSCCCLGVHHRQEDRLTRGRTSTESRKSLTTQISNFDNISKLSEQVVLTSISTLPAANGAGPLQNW
Experiment: Human OX2R IP1 assay
Format: cell-based
Conditions: T-Rex CHO cells stably overexpressing human OX2R, IP1 accumulation, 1 hr at 37 degrees C
Description: T-Rex CHO cells stably overexpressing the human orexin-2 receptor (OX2R) were induced overnight with 1 μg/mL of doxycycline in a T225 flask. 24 hours post induction, cells were lifted with accutase and plated into a 384-well proxy plate at 30,000 cells/well. Cells were then treated with different test compounds in 1× stimulation buffer containing 10 mM Hepes, 1 mM CaCl2, 0.5 mM MgCl2, 4.2 mM KCl, 146 mM NaCl, 5.5 mM glucose, and 50 mM LiCl, pH 7.4, for 1 hr at 37 degrees C. Following incubation, the reaction was terminated by the addition of detection mix, which is composed of IP1-d2 and anti-IP1-cryptate diluted in lysis buffer as well as 1× stimulation buffer. The plates were allowed to incubate for 1 hour at room temperature and were then read in the EnVision® multimode plate reader, measuring inositol phosphate levels.
Cisbio IP1 is a cell-based functional assay quantifying the accumulation of inositol monophosphate (IP), a metabolite released as a result of orexin 2 receptor activation through the phospholipase C-Gq signaling pathway. This is a competitive immunoassay in which the IP1 produced by the cells upon receptor activation competes with the IP1 analog coupled to the d2 fluorophore (acceptor) for binding to an anti-IP1 monoclonal antibody labeled with Eu cryptate (donor). The measured HTRF-FRET based signal is inversely proportional to the IP1 concentration produced.
The EC50 values reported in Table 2 were obtained according to the human OX2R IP1 assay described above. Data are the mean EC50 values±S.E.M.

Row | EC50 [µM] | SMILES
1 | 0.1 to 1 | CS(=O)(=O)N[C@H]1CCCN2C(=O)COC(=O)N(C3CC3)[C@H]3CC[C@H](CC3)OC[C@@H]12 [Compound 3]
2 | 0.1 to 1 | CN1C(=O)OCC(=O)N2CCC[C@H](NS(C)(=O)=O)[C@@H]2CO[C@H]2CC[C@@H]1CC2 [Compound 2]
3 | 0.1 to 1 | CS(=O)(=O)N[C@H]1CCCN2C(=O)COC(=O)N(CC3CC3)[C@H]3CC[C@H](CC3)OC[C@@H]12 [Compound 10]
4 | > 1 | CS(=O)(=O)N[C@H]1CCCN2C(=O)COC(=O)N(CC(F)(F)F)[C@H]3CC[C@H](CC3)OC[C@@H]12 [Compound 11]
5 | 0.1 to 1 | CCN1C(=O)OCC(=O)N2CCC[C@H](NS(C)(=O)=O)[C@@H]2CO[C@H]2CC[C@@H]1CC2 [Compound 1]
